One experiment relates to Panc2.03. Kind of experiment: Sensitivity of pancreatic adenocarcinoma cells to drug treatment (cell proliferation). Type of experiment: cell-based, human. Particulars: reduction in cell proliferation. As for the experimental part: (§1) The culture media was changed every 48 hrs.
(§2) Cells were pulsed with 10 μM BrdU for two hours and then harvested and fixed. BrdU incorporation was detected with a fluorescein isothiocyanate conjugated anti-BrdU antibody (BD Biosciences) and total DNA was stained with 7-AAD (BD Biosciences). FACS analysis was performed according to the BD Biosciences BrdU flow kit manual. Cells in S-phase were defined as the BrdU-positive cell population with a DNA content between 2N and 4N. According to the manual, apoptotic cells were defined as a subpopulation of G0/G1 cells with DNA content lower than the diploid amount (<2N).

A further experiment concerns Panc6.03. Described as above. Type of experiment: cell-based, human. Particulars: reduction in cell proliferation. As for the experimental part:
as §1, §2

Another experiment relates to L3.6pl. The experiment is described as above. In kind it is cell-based, human. Conditions: reduction in cell proliferation. As for the experimental part: as §1, §2
For the next experiment, the system named is Panc3.27. Described as above. In kind it is cell-based, human. Conditions: reduction in cell proliferation. As for the experimental part:
as §1, §2

For experiment [1], the system named is pancreatic adenocarcinoma cell lines. Put plainly: Growth, BrdU incorporation and apoptosis of pancreatic cancer cell lines (results stated for the lines together). Particulars: 7/13 lines. Type of experiment: cell-based, human. As for the experimental part: The small chemical inhibitors were used at the following final concentrations: up to 250 μM for sulindac (Sigma), up to 300 μM for sulindac sulfone (Calbiochem or ICN), NS-398 up to 25 μM (Calbiochem), sodium salicylate up to 100 μM (Calbiochem). […] To test for drug sensitivity, the cells were plated in control medium or in medium containing the drug of interest for 2 to 5 days. The culture media was changed every 48 hrs. The images showing cell morphology were taken with a Nikon inverted microscope.
as §2
The cell lines were plated the day prior to transfection at a density of 8×10^4 cells/well in a 24-well plate. The luciferase reporter constructs used included: Top-Flash and Fop-Flash containing multimerized Tcf-Lef binding sites or nonfunctional sites, respectively; TK-Luc (Promega); and GliBS containing 8×Gli binding sites upstream of the TK minimal promoter (Sasaki et al., Development, 124:1313-1322, 1997). In different experiments, the reporter constructs were co-transfected with an expression vector containing a dominant-negative form of Lef1 or the endogenous Wnt inhibitor Icat. The dominant negative Lef1 (gift from S. Pleasure) was generated by cloning the 63 amino acid N-terminal deleted form of Lef1 into the pEF5 plasmid. This construct also contains an IRES-EGFP cassette. The cDNA coding for the Icat protein was cloned into pIRES2-EGFP (BD Biosciences Clontech). Transfections were performed using the Effectene transfection reagent […] according to the user's manual. A Renilla luciferase plasmid (Promega) was included to control for transfection efficiency. Transfected cells were cultured in medium containing serum. […] Cells were harvested 24 hrs after transfection, and luciferase activity was assayed using the Dual Luciferase kit (Promega), according to the user's manual.
Small interfering RNA (siRNA) oligonucleotides against β-catenin containing two thymidine residues (dTdT) at the 3′ end of the sequence (5′-[…] […] T-3′ set forth as SEQ ID NO:57) were used for treatment of cancer cells as described (Verma et al., Clin Cancer Res, 9:1291-1300, 2003). The GLI1 siRNA (sense 5′-[…] […]-3′ set forth as SEQ ID NO:58) was also used as described (Sanchez et al., Proc Natl Acad Sci USA 101:12561-12566, 2004). Small interfering RNA against GLI2 was ordered against the target sequence 5-[…] […] A-3′, set forth as SEQ ID NO:59). […] Cells were transfected with oligofectamine (Invitrogen) according to the user's manual, with a final siRNA concentration of 100 or 300 nM. Transfected cells were incubated for 48 hrs before harvesting.
In general terms: Uptake of a labelled nucleoside into DNA is a usual measure of proliferation.

The next experiment relates to BxPC3 tumors. Kind of experiment: Subcutaneous tumor treatment in nude mice. In kind it is in vivo, CD-1 nude mice. As for the experimental part: (§3) A total of 0.1 ml Hanks' balanced salt solution and matrigel (1:1) containing 2×10^6 cells was injected subcutaneously into CD-1 nude mice (Charles River Laboratories). Tumors were grown for 4 days to a minimum volume of 125 mm^3. Treatment was initiated simultaneously for all subjects. Mice were injected with vector alone (peanut oil: PBS 7:3 v/v) or with a sulindac solution (3 mg/mouse/day) daily for 5 days. Sulindac sulfone was administered orally (1.5 mg/mouse/day). At the end of the treatment period, tumors were excised from mice, weighed and photographed.

A further experiment relates to CFPAC-1 tumors. Kind of experiment: Subcutaneous tumor treatment in nude mice. Conditions: treated for five days vs controls, sulindac 3 mg/mouse/day injected, sulindac sulfone 1.5 mg/mouse/day orally. In kind it is in vivo, CD-1 nude mice. As for the experimental part: as §3
A further experiment deals with Tcf4. Kind of experiment: Immunofluorescence of Tcf expression in pancreatic cancer cells. Type of experiment: cell-based, human. Particulars: cyclopamine for 24 hrs (FIG. 4C) or sulindac-treated.
Experiment [2] relates to Hedgehog signaling (GliBS-luc reporter). Kind of experiment: GliBS-luciferase reporter assay. Type of experiment: cell-based, human. Particulars: CFPAC-1, BxPC3, L3.6sl, Panc4.21; cyclopamine 10 μM, sulindac 250 μM; FIG. 4B. As for the experimental part:
The cell lines were plated the day prior to transfection at a density of 8×10^4 cells/well in a 24-well plate. The luciferase reporter constructs used included: Top-Flash and Fop-Flash containing multimerized Tcf-Lef binding sites or nonfunctional sites, respectively; TK-Luc (Promega); and GliBS containing 8×Gli binding sites upstream of the TK minimal promoter (Sasaki et al., Development, 124:1313-1322, 1997). In different experiments, the reporter constructs were co-transfected with an expression vector containing a dominant-negative form of Lef1 or the endogenous Wnt inhibitor Icat. The dominant negative Lef1 (gift from S. Pleasure) was generated by cloning the 63 amino acid N-terminal deleted form of Lef1 into the pEF5 plasmid. This construct also contains an IRES-EGFP cassette. The cDNA coding for the Icat protein was cloned into pIRES2-EGFP (BD Biosciences Clontech). Transfections were performed using the Effectene transfection reagent […] according to the user's manual. A Renilla luciferase plasmid (Promega) was included to control for transfection efficiency. Transfected cells were cultured in medium containing serum. […] Cells were harvested 24 hrs after transfection, and luciferase activity was assayed using the Dual Luciferase kit (Promega), according to the user's manual. […]
In general terms: In a reporter assay the amount or activity of a reporter protein is the signal.

Entries after “also recorded” stand apart in the source; their conditions may differ.

As for `CC1=C(CC(=O)O)c2cc(F)ccc2/C1=C\c1ccc([S+](C)[O-])cc1` (stereo not shown) [sulindac], the “Sulindac Sensitivity” value in the experiment with Panc2.03, in the experiment on Panc6.03, with L3.6pl and in the experiment on Panc3.27 was “Positive” in each case. Further, the “lines tested with measurable reduction in cell proliferation” value in [1] amounted to 54%. Besides, the “reduction in tumor volume compared to untreated samples” value in the experiment with BxPC3 tumors (sulindac 3 mg/mouse/day injected daily for 5 days) came out at 80%. Further, the tumor growth result in the experiment with BxPC3 tumors (treated for five days vs untreated controls, sulindac 3 mg/mouse/day injected, sulindac sulfone 1.5 mg/mouse/day orally) was “strongly reduced”. The “tumor growth (volume, size)” value with CFPAC-1 tumors is “largely unaffected; also recorded: No reduction”. Besides, the Tcf4 expression entry in the experiment with Tcf4 was “reduced”. Also, the “activity of the GliBS-luc Hedgehog reporter” value in [2] is “unaffected; also recorded: had no affect”.

For the origin of these results see US20090012018A1, “Inhibition of pancretic cancer cell growth” (priority 2004, published 2009).
